Source: ChEMBL document CHEMBL1212755, “Factors influencing pharmacokinetics of prophylactic posaconazole in patients undergoing allogeneic stem cell transplantation” (Antimicrob Agents Chemother, 2010)

Columns and labels:
Assay type in all cases: ADME, organism-based
[1] = Apparent oral clearance in patient without diarrhea undergoing allogenic hematopoietic stem cell transplantation; conditions: human, in vivo
[2] = species on record: Homo sapiens; test: Drug level in patient undergoing allogenic hematopoietic stem cell transplantation; conditions: in vivo
[3] = Apparent oral clearance in patient undergoing allogenic hematopoietic stem cell transplantation; conditions: human, in vivo
[4] = Apparent volume of distribution in patient without diarrhea undergoing allogenic hematopoietic stem cell transplantation; conditions: human, in vivo; read-out: Vc/F
[5] = Cmax in patient undergoing allogenic hematopoietic stem cell transplantation; conditions: human, in vivo
[6] = Apparent oral clearance in patient with diarrhea undergoing allogenic hematopoietic stem cell transplantation; conditions: human, in vivo
[7] = Apparent volume of distribution in patient undergoing allogenic hematopoietic stem cell transplantation; conditions: human, in vivo; read-out: Vc/F
[8] = Apparent volume of distribution in patient with diarrhea undergoing allogenic hematopoietic stem cell transplantation; conditions: human, in vivo; read-out: Vc/F

SMILES: CC[C@@H]([C@H](C)O)n1ncn(-c2ccc(N3CCN(c4ccc(OC[C@@H]5CO[C@@](Cn6cncn6)(c6ccc(F)cc6F)C5)cc4)CC3)cc2)c1=O [POSACONAZOLE]
- CL/F [1]: 1120 mL/min
- Drug uptake [2]: 411 µg/L
- CL/F [3]: 1260 mL/min
- Vd/F [4]: 2250 L
- Cmax [5]: 654 ng/mL
- CL/F [6]: 1890 mL/min
- Vd/F [7]: 835 L
- Vd/F [8]: 3800 L
